Test results published in patent US4725683A, “Fluorophenoxyphenoxypropionates and derivatives thereof” (The Dow Chemical Company, priority 1985, dated 1988).
Where two headings read alike, the source gives them in different places.

Tests used:
Type in all cases: in vivo
Wild Oats [1] = assay: Preemergent activity; conditions: Avena fatua, pre-emergence, read-out: Preemergence Control; for pest or weed control at 70 g/ha: 0.07 kgs/hectare; for pest or weed control at 140 g/ha: 0.14 kgs/hectare; for pest or weed control at 280 g/ha: 0.28 kgs/hectare; for pest or weed control at 560 g/ha: 0.56 kgs/hectare; for pest or weed control at 1120 g/ha: 1.12 kgs/hectare
Method: (§1) In a representative operation, 2-[4-(2-fluoro-4-trifluoromethylphenoxy)phenoxy]propionic acid methyl ester, to be utilized in a series of tests, is dissolved in acetone to one half of the final volume (twice the final concentration) to be used and the acetone solution in each case is admixed with an equal volume of water containing 0.1 percent by weight of Tween-20 surface active material (Tween-20 is a trademark of Atlas Chemical Company). The composition, generally in the nature of an emulsion, was employed to treat separate respective seed beds of sandy loam soil of good nutrient content wherein each seed bed contained separate groups of good viable seeds, each group being of one of a known plant species. The various beds were positioned side by side and exposed to substantially identical conditions of temperature and light. Each bed was maintained so as to prevent any interaction with the test compound in different seed beds. Each seed bed was treated with the composition as a spray employing conventional spraying equipment to deposit a predetermined amount of the compound uniformly throughout the surface of the bed. Another seed bed was treated only with the acetone-Tween-20 water mixture with no chemical added to serve as a control.

Wheat [2] = assay: Preemergent activity; conditions: Triticum aestivum, pre-emergence, read-out: Preemergence Control; for plant injury at 70 g/ha: 0.07 kgs/hectare; for plant injury at 140 g/ha: 0.14 kgs/hectare; for plant injury at 280 g/ha: 0.28 kgs/hectare; for plant injury at 560 g/ha: 0.56 kgs/hectare; for plant injury at 1120 g/ha: 1.12 kgs/hectare
Method: as §1

Barnyard Grass [3] = assay: Preemergent activity; conditions: Echinochloa crus-galli, pre-emergence, read-out: Preemergence Control; for pest or weed control at 140 g/ha: 0.14 kgs/hectare; for pest or weed control at 280 g/ha: 0.28 kgs/hectare; for pest or weed control at 560 g/ha: 0.56 kgs/hectare; for pest or weed control at 1120 g/ha: 1.12 kgs/hectare
Method: as §1

Yellow Foxtail [4] = assay: Preemergent activity; conditions: Setaria, pre-emergence, read-out: Preemergence Control; for pest or weed control at 70 g/ha: 0.07 kgs/hectare; for pest or weed control at 140 g/ha: 0.14 kgs/hectare; for pest or weed control at 280 g/ha: 0.28 kgs/hectare; for pest or weed control at 560 g/ha: 0.56 kgs/hectare; for pest or weed control at 1120 g/ha: 1.12 kgs/hectare
Method: as §1

Johnson Grass [5] = assay: Preemergent activity; conditions: Sorghum halepense, pre-emergence, read-out: Preemergence Control; for pest or weed control at 70 g/ha: 0.07 kgs/hectare; for pest or weed control at 140 g/ha: 0.14 kgs/hectare; for pest or weed control at 280 g/ha: 0.28 kgs/hectare; for pest or weed control at 560 g/ha: 0.56 kgs/hectare; for pest or weed control at 1120 g/ha: 1.12 kgs/hectare
Method: as §1

Johnson Grass [6] = assay: Postemergent activity
Method: (§2) Representative compositions of the present invention were evaluated for the postemergence control of species of plants listed in Table A. In these evaluations, pots of the plant species listed in Table A, grown to a height of about 10 cms, were used. Aqueous spray compositions, containing various amounts of 2-[4-(2-fluoro-4-trifluoromethylphenoxy)-phenoxy]propionic acid methy ester, i.e., 125 ppm, 62.5 ppm, 31.25 ppm, 15.6 ppm, 7.8 ppm and 3.9 ppm, respectively, were applied to separate pots. The spray compositions were made by mixing the active ingredient in acetone to 1/2 the final volume, i.e., twice the final concentration. An equal amount of water was added to the active ingredient/acetone mixture wherein the water contained 0.1 percent by weight of TWEEN® 200 surfactant. The application to the plants was made to the point of run-off and was carried out with conventional spraying equipment. Other pots were sprayed with similar compositions containing no toxicant to serve as controls. Thereafter, the pots were maintained under conditions conducive for plant growth. Two weeks after treatment, the pots were examined for plant growth and evaluated on a scale of 0 to 100 where 0 represents no effect and 100 represents complete kill. The results of the examination of the treated pots are set forth below in Table A.

Yellow Foxtail [7] = assay: Postemergent activity
Method: (§3) Representative compositions of the present invention were evaluated for the postemergence control of species of plants listed in Table A. In these evaluations, pots of the plant species listed in Table A, grown to a height of about 10 cms, were used. […] The spray compositions were made by mixing the active ingredient in acetone to 1/2 the final volume, i.e., twice the final concentration. An equal amount of water was added to the active ingredient/acetone mixture wherein the water contained 0.1 percent by weight of TWEEN® 200 surfactant. The application to the plants was made to the point of run-off and was carried out with conventional spraying equipment. […] Thereafter, the pots were maintained under conditions conducive for plant growth.

Wild Oats [8] = assay: Postemergent activity; conditions: Avena fatua, post-emergence, 336 h, read-out: % Control
Method: as §2
(§4) Substantially the same procedures as those described in Example A were repeated except that the active ingredients were 2-[4-(4-chloro-2-fluorophenoxy)phenoxy]propionic acid; methyl ester and its R-enantiomer and 2-(4-(4-bromo-2-fluorophenoxy)phenoxy propionic acid; methyl ester and its R enantiomer. The results are listed below in Table B.
(§5) In further operations employing the above general procedures and the indicated test compounds the following results were obtained: […]

Wheat [9] = assay: Postemergent activity; conditions: Triticum aestivum, post-emergence, 336 h, read-out: % Control
Method: as §2, §4, §5

Barnyard Grass [10] = assay: Postemergent activity
Method: as §2, §4, §5

Crabgrass [11] = assay: Postemergent activity
Method: as §2, §4, §5

Crabgrass [12] = assay: Preemergent activity
Method: as §1

Blackgrass = assay: Postemergent activity
Method: as §3

Cheatgrass = assay: Postemergent activity
Method: as §3

Green Foxtail = assay: Postemergent activity
Method: as §3

Barley = assay: Postemergent activity
Method: as §3

COC(=O)C(C)Oc1ccc(Oc2ccc(I)cc2F)cc1 (stereo not shown) [2-(4-(2-fluoro-4-iodophenoxy)phenoxy)propionic acid methyl ester]
20%: plant injury at 560 g/ha (Wheat [2]) | plant injury at 1120 g/ha (Wheat [2]) | pest or weed control at 280 g/ha (Yellow Foxtail [4])
100%: pest or weed control at 280 g/ha (Barnyard Grass [3]) | pest or weed control at 1120 g/ha (Barnyard Grass [3]) | pest or weed control at 560 g/ha (Yellow Foxtail [4]) | pest or weed control at 1120 g/ha (Yellow Foxtail [4]) | pest or weed control at 1120 g/ha (Johnson Grass [5]) | % Control (Johnson Grass [6]; 31.25 ppm) | % Control (Johnson Grass [6]; 62.5 ppm) | % Control (Johnson Grass [6]; 125 ppm) | % Control (Yellow Foxtail [7]; 31.25 ppm) | % Control (Yellow Foxtail [7]; 62.5 ppm) | % Control (Yellow Foxtail [7]; 125 ppm) | % Control (Barnyard Grass [10]; 62.5 ppm) | % Control (Barnyard Grass [10]; 125 ppm) | % Control (Crabgrass [11]; 15.6 ppm) | % Control (Crabgrass [11]; 31.25 ppm) | % Control (Crabgrass [11]; 62.5 ppm) | % Control (Crabgrass [11]; 125 ppm)
85%: % Control (Barnyard Grass [10]; 31.25 ppm)
0%: pest or weed control at 70 g/ha (Wild Oats [1]) | pest or weed control at 140 g/ha (Wild Oats [1]) | pest or weed control at 280 g/ha (Wild Oats [1]) | plant injury at 70 g/ha (Wheat [2]) | plant injury at 140 g/ha (Wheat [2]) | plant injury at 280 g/ha (Wheat [2]) | pest or weed control at 70 g/ha (Yellow Foxtail [4]) | pest or weed control at 140 g/ha (Yellow Foxtail [4]) | pest or weed control at 70 g/ha (Johnson Grass [5]) | pest or weed control at 140 g/ha (Johnson Grass [5]) | pest or weed control at 15.6 ppm (Wild Oats [8]; 15.6 ppm) | pest or weed control at 31.25 ppm (Wild Oats [8]; 31.25 ppm) | pest or weed control at 62.5 ppm (Wild Oats [8]; 62.5 ppm) | pest or weed control at 125 ppm (Wild Oats [8]; 125 ppm) | plant injury at 15.6 ppm (Wheat [9]; 15.6 ppm) | plant injury at 31.25 ppm (Wheat [9]; 31.25 ppm) | plant injury at 62.5 ppm (Wheat [9]; 62.5 ppm) | plant injury at 125 ppm (Wheat [9]; 125 ppm)
50%: pest or weed control at 140 g/ha (Barnyard Grass [3])
10%: % Control (Barnyard Grass [10]; 15.6 ppm)
99%: pest or weed control at 1120 g/ha (Wild Oats [1]) | pest or weed control at 560 g/ha (Johnson Grass [5])
60%: pest or weed control at 280 g/ha (Johnson Grass [5])
97%: pest or weed control at 560 g/ha (Barnyard Grass [3])
95%: pest or weed control at 560 g/ha (Wild Oats [1])
90%: % Control (Johnson Grass [6]; 15.6 ppm) | % Control (Yellow Foxtail [7]; 15.6 ppm)

COC(=O)[C@@H](C)Oc1ccc(Oc2ccc(Cl)cc2F)cc1 [4-Chloro-(R-Enantiomer), R enantiomer of 2-[4-(4-chloro-2-fluorophenoxy)phenoxy]propionic acid methyl ester]
70%: Preemergence Control (Crabgrass [12]; 0.07 kgs/hectare) | plant injury at 62.5 ppm (Wheat [9])
60%: pest or weed control at 560 g/ha (Wild Oats [1]) | % Control (Yellow Foxtail [7]; 6.3 ppm) | plant injury at 125 ppm (Wheat [9])
98%: pest or weed control at 280 g/ha (Barnyard Grass [3]) | pest or weed control at 1120 g/ha (Yellow Foxtail [4]) | Preemergence Control (Crabgrass [12]; 0.14 kgs/hectare) | pest or weed control at 1120 g/ha (Johnson Grass [5])
80%: pest or weed control at 1120 g/ha (Wild Oats [1]) | pest or weed control at 280 g/ha (Johnson Grass [5]) | % Control (Blackgrass; 1.6 ppm) | % Control (Green Foxtail; 0.8 ppm) | pest or weed control at 15.6 ppm (Wild Oats [8])
95%: pest or weed control at 560 g/ha (Yellow Foxtail [4]) | pest or weed control at 560 g/ha (Johnson Grass [5]) | % Control (Blackgrass; 6.3 ppm)
90%: % Control (Blackgrass; 3.2 ppm)
30%: pest or weed control at 280 g/ha (Yellow Foxtail [4])
0%: pest or weed control at 70 g/ha (Wild Oats [1]) | pest or weed control at 140 g/ha (Wild Oats [1]) | pest or weed control at 280 g/ha (Wild Oats [1]) | plant injury at 70 g/ha (Wheat [2]) | plant injury at 140 g/ha (Wheat [2]) | plant injury at 280 g/ha (Wheat [2]) | pest or weed control at 70 g/ha (Barnyard Grass [3]; 0.07 kgs/hectare) | pest or weed control at 70 g/ha (Yellow Foxtail [4]) | pest or weed control at 140 g/ha (Yellow Foxtail [4]) | pest or weed control at 70 g/ha (Johnson Grass [5]) | pest or weed control at 140 g/ha (Johnson Grass [5]) | % Control (Blackgrass; 0.4 ppm) | % Control (Cheatgrass; 0.4 ppm) | % Control (Cheatgrass; 0.8 ppm) | % Control (Cheatgrass; 1.6 ppm) | % Control (Cheatgrass; 3.2 ppm) | % Control (Cheatgrass; 6.3 ppm) | % Control (Cheatgrass; 12.5 ppm) | % Control (Cheatgrass; 25 ppm) | % Control (Green Foxtail; 0.4 ppm) | % Control (Yellow Foxtail [7]; 0.4 ppm) | % Control (Yellow Foxtail [7]; 0.8 ppm) | % Control (Yellow Foxtail [7]; 1.6 ppm) | % Control (Barley; 7.8 ppm) | % Control (Barley; 15.6 ppm) | % Control (Barley; 31.25 ppm) | % Control (Barley; 62.5 ppm) | plant injury at 7.8 ppm (Wheat [9]) | plant injury at 15.6 ppm (Wheat [9]) | plant injury at 31.25 ppm (Wheat [9])
40%: % Control (Blackgrass; 0.8 ppm) | % Control (Yellow Foxtail [7]; 3.2 ppm) | % Control (Barley; 125 ppm) | pest or weed control at 7.8 ppm (Wild Oats [8])
100%: pest or weed control at 560 g/ha (Barnyard Grass [3]) | pest or weed control at 1120 g/ha (Barnyard Grass [3]) | Preemergence Control (Crabgrass [12]; 0.28 kgs/hectare) | Preemergence Control (Crabgrass [12]; 0.56 kgs/hectare) | Preemergence Control (Crabgrass [12]; 1.12 kgs/hectare) | % Control (Blackgrass; 12.5 ppm) | % Control (Blackgrass; 25 ppm) | % Control (Green Foxtail; 1.6 ppm) | % Control (Green Foxtail; 3.2 ppm) | % Control (Green Foxtail; 6.3 ppm) | % Control (Green Foxtail; 12.5 ppm) | % Control (Green Foxtail; 25 ppm) | % Control (Yellow Foxtail [7]; 12.5 ppm) | % Control (Yellow Foxtail [7]; 25 ppm) | pest or weed control at 31.25 ppm (Wild Oats [8]) | pest or weed control at 62.5 ppm (Wild Oats [8]) | pest or weed control at 125 ppm (Wild Oats [8])
20%: plant injury at 1120 g/ha (Wheat [2])
10%: plant injury at 560 g/ha (Wheat [2]) | pest or weed control at 140 g/ha (Barnyard Grass [3])
